What is called IC50 is the concentration that inhibits the measured activity by half.

The source of these data is patent US9834526B2 (MERCK SHARP & DOHME CORP., priority 2013, dated 2017).

The experiment deals with T1, wildtype HIV-1 protease (Human immunodeficiency virus type 1 group M subtype B, UniProt P04585).
T1 construct: preincubated with the HIV-1 protease (wild type) enzyme in assay buffer; made in house; host or cells: Escherichia coli
Nature of the experiment: Inhibition of microbial expressed HIV protease (Pepcleav). It counts as biochemical. The settings on record: wild type HIV-1 protease expressed in E. coli, 20 pM enzyme, 400 micromolar peptide substrate, pH 5.5, LC-MS readout; mean of at least two independent experiments. The procedure:
Assay for Inhibition of Microbial Expressed HIV Protease (“Pepcleav”)
Studies of the inhibition of the wildtype HIV-1 protease (which was expressed in Escherichia coli) were carried out with a peptide substrate [Val-Ser-Gln-Asn-(βnaphthyl)Ala-Pro-Ile-Val (SEQ ID NO:1)]. The inhibitor was first preincubated with the HIV-1 protease (wild type) enzyme in assay buffer (50 mM sodium acetate, pH 5.5, 100 mM NaCl, and 0.1% BSA) for 30 minutes at room temperature. Substrate was added to 400 micromolar in a total volume of 20 microliters containing 20 picomolar HIV-1 protease (final) and the reaction was incubated for 1 hour at 30° C. The reaction was quenched with the addition of formic acid and indinavir to 0.012% and 150 nM final concentrations, respectively. The product formation was determined after separation of product and substrate on a Zorbax Eclipse XDB-C18 column connected to an API 4000 mass spectrometer (Applied Biosystems) with multiple reaction monitoring (transitions were 644.5/428.9 and 615.4/422.2 (M1/M3) for product and indinavir respectively). The extent of inhibition of the reaction was determined from the peak area of the products. Analysis of the products, independently synthesized, provided quantitation standards and confirmation of the product composition.

Molecules are shown by their SMILES.

`C[C@H]1O[C@H](CCc2c(F)cncc2NC(=O)[C@@H](N)C(c2ccc(F)cc2)c2ccc(F)cc2)CN[C@@H]1COC(=O)NCC(F)(F)F` [Example 45, 4-fluoro-N-(5-fluoro-4-{2-[(2R,5R,6R)-6-methyl-5-({[(2,2,2-trifluoroethyl)carbamoyl]oxy}methyl)morpholin-2-yl]ethyl}pyridin-3-yl)-β-(4-fluorophenyl)-L-phenylalaninamide] registered a half-maximal inhibitory concentration (IC50) of 24 nM. This lies in the double-digit nanomolar range.
Under `COC(=O)N[C@H](C(=O)Nc1ccccc1CC[C@@H]1CN[C@H](COC(=O)NCC(F)(F)F)[C@@H](CO)O1)C(c1ccccc1)c1ccccc1` [Example 46, N-(2-{2-[(2R,5R,6S)-6-(hydroxymethyl)-5-({[(2,2,2-trifluoroethyl)carbamoyl]oxy}methyl)morpholin-2-yl]ethyl}phenyl)-Nα-(methoxycarbonyl)-β-phenyl-L-phenylalaninamide] stands 65 nM; under `C[C@H]1O[C@H](CCc2c(F)cccc2NC(=O)[C@@H](N)C(c2ccc(F)cc2)c2ccc(F)cc2)CN[C@@H]1COC(=O)NCc1ccc(F)cc1` [Example 48, 4-fluoro-N-(3-fluoro-2-{2-[(2R,5R,6R)-5-({[(4-fluorobenzyl)carbamoyl]oxy}methyl)-6-methylmorpholin-2-yl]ethyl}phenyl)-β-(4-fluorophenyl)-L-phenylalaninamide], 5.8 nM; under `C[C@@H]1O[C@H](CCc2c(F)cccc2NC(=O)[C@@H](N)C(c2ccc(F)cc2)c2ccc(F)cc2)CN[C@@H]1CO` [Example 49, 4-fluoro-N-(3-fluoro-2-{2-[(2R,5R,6S)-5-(hydroxymethyl)-6-methylmorpholin-2-yl]ethyl}phenyl)-β-(4-fluorophenyl)-L-phenylalaninamide], 400 nM.
Under `C[C@@H]1O[C@H](CCc2c(F)cccc2NC(=O)[C@@H](N)C(c2ccc(F)cc2)c2ccc(F)cc2)CN[C@@H]1COC(=O)NCC(F)(F)F` [Example 50, 4-fluoro-N-(3-fluoro-2-{2-[(2R,5R,6S)-6-methyl-5-({[(2,2,2-trifluoroethyl)carbamoyl]oxy}methyl)morpholin-2-yl]ethyl}phenyl)-β-(4-fluorophenyl)-L-phenylalaninamide] stands 30 nM; under `C[C@H]1O[C@H](COc2c(F)cncc2NC(=O)[C@@H](N)C(c2ccc(F)cc2)c2ccc(F)cc2)CN[C@@H]1COC(=O)NCC(F)(F)F` [Example 51, 4-fluoro-N-(5-fluoro-4-{[(2S,5R,6R)-6-methyl-5-({[(2,2,2-trifluoroethyl)carbamoyl]oxy}methyl)morpholin-2-yl]methoxy}pyridin-3-yl)-β-(4-fluorophenyl)-L-phenylalaninamide], 77 nM; under `C[C@H]1O[C@H](COc2c(F)cncc2NC(=O)[C@@H](N)C(c2ccc(F)cc2)c2ccc(F)cc2)CN[C@@H]1COC(N)=O` [Example 52, N-[4-({(2S,5R,6R)-5-[(carbamoyloxy)methyl]-6-methylmorpholin-2-yl}methoxy)-5-fluoropyridin-3-yl]-4-fluoro-β-(4-fluorophenyl)-L-phenylalaninamide], 52 nM.
With `C[C@@H]1O[C@H](CCc2c(F)cncc2NC(=O)[C@@H](N)C(c2ccc(F)cc2)c2ccc(F)cc2)CN[C@@H]1COC(N)=O` [Example 53, N-[4-(2-{(2R,5R,6S)-5-[(carbamoyloxy)methyl]-6-methylmorpholin-2-yl}ethyl)-5-fluoropyridin-3-yl]-4-fluoro-β-(4-fluorophenyl)-L-phenylalaninamide] the figure was 25 nM.
`C[C@@H]1O[C@H](CCc2c(F)cncc2NC(=O)[C@@H](N)C(c2ccc(F)cc2)c2ccc(F)cc2)CN[C@@H]1COC(=O)NCC(F)(F)F` [Example 54, 4-fluoro-N-(5-fluoro-4-{2-[(2R,5R,6S)-6-methyl-5-({[(2,2,2-trifluoroethyl)carbamoyl]oxy}methyl)morpholin-2-yl]ethyl}pyridin-3-yl)-β-(4-fluorophenyl)-L-phenylalaninamide] came in with a 50% inhibitory concentration (IC50) of 30 nM.
Consider `C[C@H]1O[C@H](CCc2c(F)cccc2NC(=O)[C@@H](N)C(c2ccc(F)cc2)c2ccc(F)cc2)CN[C@@H]1COC(=O)NCc1ccc(F)cc1` [Example 56, 4-fluoro-N-(3-fluoro-2-{2-[(2R,5R,6R)-5-({[(4-fluorobenzyl)carbamoyl]oxy}methyl)-6-methylmorpholin-2-yl]ethyl}phenyl)-β-(4-fluorophenyl)-L-phenylalaninamide], for which the half-inhibitory concentration (IC50) turned out to be 7 nM.
Under `C[C@H]1O[C@H](CCc2c(F)cncc2NC(=O)[C@@H](N)C(c2ccc(F)cc2)c2ccc(F)cc2)CN[C@@H]1COC(=O)NCC(F)(F)F` [Example 57, 4-fluoro-N-(5-fluoro-4-{2-[(2R,5R,6R)-6-methyl-5-({[(2,2,2-trifluoroethyl)carbamoyl]oxy}methyl)morpholin-2-yl]ethyl}pyridin-3-yl)-β-(4-fluorophenyl)-L-phenylalaninamide] stands 59 nM; under `CC(C)[C@@H](NC(=O)OC[C@H]1NC[C@@H](CCc2c(F)cccc2NC(=O)[C@@H](N)C(c2ccc(F)cc2)c2ccc(F)cc2)O[C@H]1C)c1ccc(F)cc1` [Example 58, 4-fluoro-N-[3-fluoro-2-(2-{(2R,5R,6S)-5-[({[(1R)-1-(4-fluorophenyl)-2-methylpropyl]carbamoyl}oxy)methyl]-6-methylmorpholin-2-yl}ethyl)phenyl]-β-(4-fluorophenyl)-L-phenylalaninamide], 6.9 nM.
With `C[C@@H]1O[C@H](CCc2c(F)cccc2NC(=O)[C@@H](N)C(c2ccc(F)cc2)c2ccc(F)cc2)CN[C@@H]1COC(=O)N[C@@H](c1ccc(F)cc1)C1CC1` [Example 59, N-[2-(2-{(2R,5R,6S)-5-[({[(R)-cyclopropyl(4-fluorophenyl)methyl]carbamoyl}oxy)methyl]-6-methylmorpholin-2-yl}ethyl)-3-fluorophenyl]-4-fluoro-β-(4-fluorophenyl)-L-phenylalaninamide] the figure was 17 nM.
Under `N[C@H](C(=O)Nc1cccc(F)c1OC[C@@H]1CN[C@@H]2c3ccccc3C[C@@H]2O1)C(c1ccccc1)c1ccccc1` [Example 60, N-{3-fluoro-2-[(2S,4aR,9aS)-2,3,4,4a,9,9a-hexahydroindeno [2,1-b][1,4]oxazin-2-ylmethoxy]phenyl}-β-phenyl-L-phenylalaninamide] stands 610 nM; under `C[C@@H]1O[C@H](CCc2c(F)cccc2NC(=O)[C@@H](N)C(c2ccc(F)cc2)c2ccc(F)cc2)CN[C@@H]1COC(=O)N[C@H](C)C(F)(F)F` [Example 61, 4-fluoro-N-[3-fluoro-2-(2-{(2R,5R,6S)-6-methyl-5-[({[(1R)-2,2,2-trifluoro-1-methylethyl]carbamoyl}oxy)methyl]morpholin-2-yl}ethyl)phenyl]-β-(4-fluorophenyl)-L-phenylalaninamide], 27 nM.
Consider `O=C(CC(c1ccc(F)cc1)c1ccc(F)cc1)Nc1cccc(F)c1CC[C@@H]1CN[C@H](CO)[C@@H](COC(=O)NCC(F)(F)F)O1` [Example 62], for which half-maximal inhibition (IC50) required 170 nM.
Under `N[C@H](C(=O)Nc1cccc(F)c1CC[C@@H]1CN[C@H](CO)[C@@H](COC(=O)NCC(F)(F)F)O1)C(c1ccc(F)cc1)c1ccc(F)cc1` [Example 63, 4-fluoro-N-(3-fluoro-2-{2-[(2R,5R,6S)-5-(hydroxymethyl)-6-({[(2,2,2-trifluoroethyl)carbamoyl]oxy}methyl)morpholin-2-yl]ethyl}phenyl)-β-(4-fluorophenyl)-L-phenylalaninamide] stands 130 nM.
